# Assay results taken from patent US20050272647A1, “Arthrodial cartilage extracellular matrix degradation inhibitor” (priority 2002, published 2005).
# Where a name gives a salt, the structure may show the parent alone.
# Assays:
# HDAC = settings: literature value, cited from earlier work; for IC50: read-out: HDAC inhibitory activity (IC50 value); for HDAC inhibitory activity (order of magnitude): Nat. Rev. Drug Discov. 2002
# [1] = tested on: rabbit knee articular cartilage primary culture cells; assay: PG destruction inhibitory activity in rabbit cartilage primary culture cell (stimulation with retinoic acid); settings: Oryctolagus cuniculus, 48 h, read-out: PG degradation inhibition (%)
# Experimental: After a rabbit (Japanese white race, male, 1.0 to 1.5 kg) was killed under excessive anesthesia, the knee joint was taken out and the cartilage layer on the articular surface was abraded and cut finely. […] After 3 days, the medium was replaced by 200 μl of DMEM/10% FBS medium containing 50 μg/ml ascorbic acid (hereinafter referred to as ascorbic acid medium) and two days of culture was further repeated twice. Thereafter, the rabbit knee articular cartilage primary culture cells were cultured in 200 μl of the ascorbic acid medium containing Na2 35SO4 of a final concentration of 10 μCi/ml for 3 days to achieve labeling, followed by washing with 200 μl of the ascorbic acid medium three times and 1 day of culture in 200 μl of the ascorbic medium. The culture was stimulated with all-trans retinoic acid (manufactured by Sigma) of a final concentration of 1 μM. A culture supernatant after 48 hours was recovered in an each amount of 20 μl and radioactivity was measured using Topcount (manufactured by Packard). The test compound was added simultaneously with the start of the stimulation and a PG degradation inhibitory activity was calculated as percentage where a group to which retinoic acid was not added was defined as 100% and a group to which retinoic acid was added was defined as 0%.
# [2] = tested on: rabbit cartilage primary culture cells; assay: PG destruction inhibitory activity in rabbit cartilage primary culture cell (stimulation with IL-1); settings: Oryctolagus cuniculus, 48 h, read-out: PG degradation inhibition (%)
# Experimental: After a rabbit (Japanese white race, male, 1.0 to 1.5 kg) was killed under excessive anesthesia, the knee joint was taken out and the cartilage layer on the articular surface was abraded and cut finely. […] After 3 days, the medium was replaced by 200 μl of DMEM/10% FBS medium containing 50 μg/ml ascorbic acid (hereinafter referred to as ascorbic acid medium) and two days of culture was further repeated twice. Thereafter, the rabbit knee articular cartilage primary culture cells were cultured in 200 μl of the ascorbic acid medium containing Na2 35SO4 of a final concentration of 10 μCi/ml for 3 days to achieve labeling, followed by washing with 200 μl of the ascorbic acid medium three times and 1 day of culture in 200 μl of the ascorbic medium.
# They were stimulated with human IL-1β (manufactured by R&D System) of a final concentration of 10 ng/ml. A culture supernatant after 48 hours was recovered in an each amount of 20 μl and radioactivity was measured using Topcount (manufactured by Packard). The test compound was added simultaneously with the start of the stimulation and a PG degradation inhibitory activity was calculated as percentage where a group to which IL-1 was not added was defined as 100% and a group to which IL-1 was added was defined as 0%.
# [3] = tested on: histone deacetylase fraction; assay: HDAC inhibitory activity, [3H]acetylhistone and histone deacetylase fraction (method of Yoshida et al.); assay type: biochemical; settings: at 30 nM
# Experimental: Specifically, the measurement can be conducted, using [^3H]acetylhistone and a histone deacetylase fraction prepared by the method described in the above reference, adding a test compound to a reaction solution containing [^3H]acetylhistone and DTT, mixing the histone deacetylase fraction after 1 hour of pre-incubation at room temperature, reacting them for 2 hours at room temperature, adding 1M hydrochloric acid and ethyl acetate thereto, and then measuring radioactivity in the ethyl acetate layer separated by centrifugation by a scintillation counter.
structure (smiles),measurement,setting,value
CC(/C=C/C(=O)NO)=C\[C@@H](C)C(=O)c1ccc(N(C)C)cc1 [Trichostatin A],IC50,HDAC,0.0021 µM
same,inhibition at 0.1 µM,[1],40%
same,inhibition at 1 µM,[1],58%
O=C(/C=C/c1ccc(CN(CCO)CCc2c[nH]c3ccccc23)cc1)NO [NVP-LAQ824],IC50,HDAC,0.03 µM
same,inhibition at 0.03 µM,[1],26%
same,inhibition at 0.3 µM,[1],90%
CCCC(CCC)C(=O)O [Valproic acid],HDAC inhibitory activity (order of magnitude),HDAC,mM order
CCC(=O)CCCCC[C@@H]1NC(=O)[C@H]2CCCCN2C(=O)[C@H]([C@@H](C)CC)NC(=O)[C@H](Cc2cn(OC)c3ccccc23)NC1=O [Apicidin],inhibition at 0.03 µM,[1],25%
same,inhibition at 0.3 µM,[1],92%
"CCCC(CCC)C(=O)O [Valproic acid (Na salt), Valproic acid]",inhibition at 300 µM,[1],49%
same,inhibition at 1000 µM,[1],46%
same,inhibition at 3000 µM,[1],79%
"CCCC(=O)O [Butyric acid (Na salt), Butyric acid]",IC50,HDAC,280 µM
same,inhibition at 5000 µM,[2],78%
same,inhibition at 300 µM,[1],27%
same,inhibition at 3000 µM,[1],93%
Nc1ccccc1NC(=O)c1ccc(CNC(=O)OCc2cccnc2)cc1 [MS-27-275],IC50,HDAC,2 µM
CCCC(=O)O [butyric acid],HDAC inhibitory activity (order of magnitude),HDAC,mM order
C/C=C1\NC(=O)[C@H]2CSSCC/C=C/[C@H](CC(=O)N[C@H](C(C)C)C(=O)N2)OC(=O)[C@H](C(C)C)NC1=O [FK228],inhibition at 0.03 µM,[2],97%
same,inhibition at 0.01 µM,[1],39%
same,inhibition at 0.1 µM,[1],97%
CC1NC(=O)CC2/C=C/CCSSCC(NC1=O)C(=O)NC(C(C)C)C(O)CC(=O)O2 (centres unmarked) [Compound A],HDAC inhibition,[3],about 85%
same,inhibition at 0.0003 µM,[2],6%
same,inhibition at 0.003 µM,[2],39%
same,inhibition at 0.03 µM,[2],61%
same,inhibition at 0.001 µM,[1],20%
same,inhibition at 0.01 µM,[1],51%
same,inhibition at 0.1 µM,[1],93%
same,inhibition at 1 µM,[1],98%
